Among the test systems are ACHN renal; HCT-116 colon; HT29 colon; K-562 leukemia; NCI-H23 lung; NCI/ADR-RES ovarian; OVCAR-8 ovarian; SN12C renal; UACC-62 melanoma; SF-539 CNS.
Common to all, as to assay: DTP human tumour cell line panel, 48 h

Molecules are shown by their SMILES. “And” between values parts separate entries of the source, which are not always exact repeats. Equal entries are not always repeated.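 Five compound concentrations were applied to cells in 96-well plates for 48 hours; endpoints were derived by simple linear interpolation of the resulting dose-response curve. GI50 marks 50% less growth. TGI: total growth inhibition.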

TGI and GI50 data for 14 molecules are collected here from PubChem BioAssay (NCI).

By TGI is commonly meant the concentration at which net growth stops. The low end stands for more potent growth arrest, the high end for less potent growth arrest. Regarding `O=C(/C=C\c1ccc([N+](=O)[O-])cc1)c1ccccc(=O)c1O`, the TGI in the assay with ACHN renal was 2.85 µM; with HCT-116 colon, 2.35 µM; in the assay with HT29 colon it was 3.85 µM; in the assay on K-562 leukemia it was above 30.9 µM; in the assay on NCI-H23 lung, 12.4 µM; in the assay with NCI/ADR-RES ovarian, 2.97 µM. Besides, the concentration for total growth inhibition (TGI) in the assay with OVCAR-8 ovarian was 11.3 µM; in the assay with SN12C renal it was above 100 µM; in the assay on UACC-62 melanoma, 3.13 µM.

By GI50 is commonly meant the concentration at which growth is held to half of that of the control. As to `COc1ccc(C/C(=C(\C)c2ccc(OCCN3CCCC3)cc2)c2ccc(OCCN3CCCC3)cc2)cc1`, the GI50 with ACHN renal is 1740 nM; with HT29 colon, 1580 nM; in the assay on K-562 leukemia it was 1530 nM; in the assay on NCI-H23 lung, 3.67 µM; in the assay with NCI/ADR-RES ovarian, 1.96 µM; in the assay on OVCAR-8 ovarian, 2.05 µM. Also, the GI50 was 1800 nM in the assay on SF-539 CNS, 1670 nM in the assay on SN12C renal and 1.78 µM in the assay with UACC-62 melanoma. The TGI in the assay on ACHN renal came to 3.12 µM; in the assay on HT29 colon it was 3.07 µM; in the assay on K-562 leukemia it was 3.6 µM; in the assay on NCI-H23 lung, 14.1 µM; in the assay with NCI/ADR-RES ovarian, 3.71 µM; in the assay with OVCAR-8 ovarian, 4.38 µM. Also, the TGI was 3.25 µM in the assay with SF-539 CNS, 3.2 µM in the assay with SN12C renal and 3.38 µM with UACC-62 melanoma.

In the case of `Nc1ccc(C2=CC(c3ccc(Cl)cc3)N3C=CSC3=N2)cc1` (stereo not given), the GI50 is 2020 nM with ACHN renal; 1660 nM in the assay with HCT-116 colon; 2790 nM with HT29 colon; 17.8 µM in the assay with NCI-H23 lung; 7.89 µM in the assay on NCI/ADR-RES ovarian; 4.16 µM with OVCAR-8 ovarian. The GI50 was 1840 nM with SF-539 CNS, 6400 nM in the assay on SN12C renal and 4.4 µM in the assay on UACC-62 melanoma. The TGI is 4.46 µM with ACHN renal; 3.2 µM with HCT-116 colon; 6.98 µM with HT29 colon; 46.8 µM with NCI-H23 lung; above 100 µM in the assay on NCI/ADR-RES ovarian; 48.1 µM in the assay on OVCAR-8 ovarian. For the same molecule, the TGI in the assay on SF-539 CNS was found to be 3.85 µM; in the assay with SN12C renal, 26.9 µM; in the assay with UACC-62 melanoma, 18.1 µM.

As for `CCCCCCCCCCCCCCCCCCn1cc[n+](C)c1`, the GI50 in the assay with ACHN renal is 540 nM and 690 nM; with HT29 colon it was 403 nM and 358 nM; with K-562 leukemia, 385 nM and 312 nM; in the assay with NCI/ADR-RES ovarian, 1.58 µM; with SF-539 CNS, 1060 nM; in the assay with SN12C renal it was 1070 nM and 826 nM. For the same molecule, the GI50 in the assay with UACC-62 melanoma is 1.04 µM. Besides, the TGI was 2.04 µM and 2.03 µM with ACHN renal; 1.64 µM and 1.45 µM in the assay with HT29 colon; above 100 µM in the assay on K-562 leukemia; 5.47 µM with NCI/ADR-RES ovarian; 2.4 µM with SF-539 CNS; 2.47 µM and 2.3 µM in the assay with SN12C renal. This molecule returned a TGI in the assay on UACC-62 melanoma of 2.3 µM.

`Cc1csc2[n+]1-c1ccccc1N(C(=O)Nc1ccccc1)C(C)C2` (stereo not given): the GI50 is 55500 nM with ACHN renal; 16500 nM in the assay on HCT-116 colon; 36600 nM in the assay on HT29 colon; above 100000 nM in the assay with K-562 leukemia; 35.8 µM with NCI-H23 lung; 25.1 µM in the assay with NCI/ADR-RES ovarian. The GI50 in the assay with OVCAR-8 ovarian is above 100 µM; in the assay with SN12C renal it was above 100000 nM; in the assay with UACC-62 melanoma, 60.4 µM. Besides, the concentration for total growth inhibition (TGI) in the assay on ACHN renal is above 100 µM; in the assay with HCT-116 colon it was 31.5 µM; in the assay on HT29 colon, above 100 µM; with K-562 leukemia, above 100 µM; in the assay on NCI-H23 lung, above 100 µM; in the assay with NCI/ADR-RES ovarian, 88.4 µM. Also, the TGI with OVCAR-8 ovarian, in the assay on SN12C renal and in the assay on UACC-62 melanoma was above 100 µM each time.

On to `O=S(=O)(O)c1cc(O)c(N=Nc2ccc(O)cc2O)c2ccccc12`, for which the TGI with ACHN renal, in the assay with HCT-116 colon, with HT29 colon, in the assay with K-562 leukemia, in the assay on NCI/ADR-RES ovarian and in the assay on OVCAR-8 ovarian was above 100 µM in each case. In the assay with SN12C renal, this molecule showed a TGI above 100 µM.

For `CCCCCCCCCCCCCC[N+](C)(C)CCCCCCCCCCCCCC`, the GI50 in the assay with ACHN renal was 2620 nM; in the assay with K-562 leukemia it was 2890 nM; in the assay on NCI-H23 lung, 2.12 µM; with NCI/ADR-RES ovarian, 7.42 µM; with UACC-62 melanoma it was 1.89 µM. For the same molecule, the TGI was found to be 6.85 µM in the assay on ACHN renal; 9.8 µM with K-562 leukemia; 6.13 µM with NCI-H23 lung; 63.4 µM with NCI/ADR-RES ovarian; 5.7 µM with UACC-62 melanoma.

Turning to `COCc1c(-c2cc3cc(C)cc(OC)c3s2)c2c(N)ncnn2c1CN1CCNC(=O)C1`, the GI50 is 4310 nM with ACHN renal; 5080 nM in the assay with HCT-116 colon; 3680 nM in the assay on HT29 colon; 4.45 µM with NCI-H23 lung; 24.3 µM in the assay with NCI/ADR-RES ovarian; 4.85 µM with OVCAR-8 ovarian. In addition, the GI50 in the assay with SF-539 CNS was 2310 nM; in the assay on SN12C renal, 4020 nM; in the assay with UACC-62 melanoma, 4.08 µM. In addition, the TGI with ACHN renal is 55.5 µM; in the assay on HCT-116 colon it was 44.4 µM; in the assay on HT29 colon, 19.9 µM; in the assay on NCI-H23 lung, 70.7 µM; in the assay with NCI/ADR-RES ovarian it was above 100 µM; in the assay on OVCAR-8 ovarian it was above 100 µM. Also, the TGI with SF-539 CNS turned out to be 14.4 µM; in the assay on SN12C renal, 67.1 µM; in the assay on UACC-62 melanoma, 23.5 µM.

`COc1cc(/C=C/C(=O)/C=C/c2ccc(-n3ccnc3C)cc2)ccc1O`: the GI50 in the assay with ACHN renal is 3040 nM; with HT29 colon, 1950 nM; with K-562 leukemia, 3320 nM; in the assay on NCI-H23 lung it was 2.08 µM; in the assay on NCI/ADR-RES ovarian, 14.5 µM; in the assay with OVCAR-8 ovarian, 3.52 µM. Also, the GI50 with SF-539 CNS was 2190 nM; in the assay with SN12C renal it was 2360 nM; in the assay on UACC-62 melanoma it was 4.49 µM. The TGI in the assay on ACHN renal is 10.4 µM; in the assay with HT29 colon, 3.9 µM; with K-562 leukemia it was above 100 µM; in the assay with NCI-H23 lung, 5.5 µM; in the assay with NCI/ADR-RES ovarian, above 100 µM; with OVCAR-8 ovarian it was above 100 µM. Further, the TGI with SF-539 CNS is 5.53 µM; in the assay with SN12C renal, 6.63 µM; in the assay on UACC-62 melanoma, 21.3 µM.

As to `NC(=O)c1cc([N+](=O)[O-])c(Cl)c([N+](=O)[O-])c1Cl`, the GI50 is 1630 nM in the assay with ACHN renal; 228 nM in the assay with HCT-116 colon; 308 nM in the assay with HT29 colon; 1.96 µM with NCI-H23 lung; 2.01 µM with NCI/ADR-RES ovarian; 1.26 µM in the assay with OVCAR-8 ovarian. Also, the GI50 in the assay on SF-539 CNS is 1990 nM; in the assay with SN12C renal, 1750 nM; in the assay on UACC-62 melanoma it was 1.39 µM. The TGI in the assay on ACHN renal worked out at 3.71 µM; in the assay with HCT-116 colon, 0.582 µM; in the assay on HT29 colon, 1.05 µM; with NCI-H23 lung it was 4.25 µM; in the assay with NCI/ADR-RES ovarian, 4.93 µM; in the assay on OVCAR-8 ovarian it was 2.56 µM. In addition, the TGI in the assay on SF-539 CNS came to 3.79 µM; in the assay on SN12C renal, 3.27 µM; in the assay with UACC-62 melanoma, 2.85 µM.

In the case of `Cc1cccc2nc3ccccc3c(Nc3ccc(NS(C)(=O)=O)cc3)c12`, the GI50 with ACHN renal is 2690 nM; in the assay with HCT-116 colon, 3670 nM; in the assay on HT29 colon, 5180 nM; in the assay with K-562 leukemia, 5620 nM; in the assay on NCI/ADR-RES ovarian, 15.8 µM; in the assay on OVCAR-8 ovarian it was 6.23 µM. The GI50 was 10300 nM with SF-539 CNS and 3550 nM with SN12C renal. For the same molecule, the TGI with ACHN renal was determined as 11 µM; in the assay with HCT-116 colon, 15.9 µM; with HT29 colon, 24.8 µM; with K-562 leukemia, 26.8 µM; in the assay on NCI/ADR-RES ovarian, 48.8 µM; in the assay with OVCAR-8 ovarian, 30.9 µM. For the same molecule, the TGI with SF-539 CNS was 22.8 µM; with SN12C renal, 15.4 µM.

On to `O=C1CC(c2ccccc2)=Nc2ccccc2N1`, for which the TGI with ACHN renal, with HCT-116 colon, in the assay with HT29 colon, in the assay with K-562 leukemia, in the assay with NCI-H23 lung and with OVCAR-8 ovarian was above 100 µM each time. Also, the TGI in the assay on SF-539 CNS, in the assay on SN12C renal and with UACC-62 melanoma was above 100 µM in each case.

Consider `C[C@]12CC[C@H]3[C@@H](CC=C4C[C@@H](N5CCCC5)CC[C@@]43C)[C@@H]1C/C(=C\c1cccc(OCCN3CCOCC3)c1)[C@@H]2O`, for which the GI50 with ACHN renal is 4290 nM; in the assay on HCT-116 colon, 1660 nM; with HT29 colon, 532 nM; in the assay with K-562 leukemia, 2340 nM; in the assay with NCI-H23 lung, 13.3 µM; with OVCAR-8 ovarian, 3.74 µM. Further, the GI50 in the assay on SF-539 CNS is 1410 nM; in the assay with SN12C renal, 25900 nM; in the assay on UACC-62 melanoma it was 17.6 µM. The total growth inhibition concentration (TGI) with ACHN renal was 32.5 µM; in the assay on HCT-116 colon it was 5.13 µM; in the assay on HT29 colon, 15.7 µM; in the assay on K-562 leukemia it was above 100 µM; in the assay with NCI-H23 lung, 41.6 µM; in the assay on OVCAR-8 ovarian, 21.7 µM. The TGI in the assay with SF-539 CNS was 3.38 µM; in the assay with SN12C renal, above 100 µM; with UACC-62 melanoma it was 33.2 µM.

With `c1ccc2c3c([nH]c2c1)[C@H]1C2CCCCN2CN1CC3` (stereo not given in full), the TGI with ACHN renal, in the assay with HCT-116 colon, in the assay on HT29 colon, with K-562 leukemia, with NCI-H23 lung and with OVCAR-8 ovarian was above 100 µM throughout. The TGI in the assay with SF-539 CNS, with SN12C renal and in the assay on UACC-62 melanoma was above 100 µM throughout.
